Patent publication US20070197625A1, “Azabicyclic compounds, a process for their preparation and pharmaceutical compositions containing them” (Les Laboratoraties Servier, priority 2004, published 2007)

Molecular target: T1, type H3 central histaminergic receptors (Mus musculus, UniProt P58406)
T1 construct: from tissue; host or cells: brain of living NMRI mice
Assay: Cerebral doses of N^t-methylhistamine in the NMRI mouse (ex vivo, after oral administration)
Conditions: NMRI mice, brain two hours after treatment, vs carrier control
Description: The aim of this study, carried out according to the method of Taylor et al. (Biochem. Pharm., 1992, 44, 1261-1267), is to evaluate the ex vivo activity of the compounds of the present invention as type H3 central histaminergic receptor antagonists. […] An increase in the cerebral concentrations of N^t-methylhistamine signifies an increase in histamine turnover by blockade of the type H3 central histaminergic receptors.
NMRI mice (18-20 g) are treated via oral administration with the compounds of the present invention or with their carrier (20 ml/kg). Two hours after the pharmacological treatment, the animals are sacrificed, the brains are removed, frozen in liquid nitrogen, weighed and homogenised in 0.1N HClO4 at 4° C. The homogenates are centrifuged (15000 g, 17 min, 4° C.). The supernatants are recovered and divided into aliquots. The aliquots are frozen in liquid nitrogen and stored at −80° C. until their analysis.
Determination of the cerebral levels of N^t-methylhistamine is effected by capillary electrophoresis coupled with detection by laser-induced fluorescence (J. Chromatogr. A., 1996, 755, 99-115). The tissue levels of N^t-methylhistamine are expressed in ng/g of fresh brain. Comparison between the cerebral levels of N^t-methylhistamine of the animals treated with the carrier (control) and the animals treated with the compounds of the present invention (n=5/group) is effected by single factor variance analysis followed, if necessary, by a supplementary analysis (Dunnett's test).

T1 sequence (P58406 whole entry): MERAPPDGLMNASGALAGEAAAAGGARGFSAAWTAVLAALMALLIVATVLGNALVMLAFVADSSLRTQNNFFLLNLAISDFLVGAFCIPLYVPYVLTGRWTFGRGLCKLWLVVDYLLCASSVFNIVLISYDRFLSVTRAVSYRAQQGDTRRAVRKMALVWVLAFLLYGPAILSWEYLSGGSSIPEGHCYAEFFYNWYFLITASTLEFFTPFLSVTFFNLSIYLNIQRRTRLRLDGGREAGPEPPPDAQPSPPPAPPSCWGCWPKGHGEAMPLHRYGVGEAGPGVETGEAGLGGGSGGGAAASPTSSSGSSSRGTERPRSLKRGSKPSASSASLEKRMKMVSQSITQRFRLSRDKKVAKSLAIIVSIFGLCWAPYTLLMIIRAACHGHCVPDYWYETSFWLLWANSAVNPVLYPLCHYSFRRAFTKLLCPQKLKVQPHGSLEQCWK

SMILES | increase of the endogenous cerebral concentrations of N^t-methylhistamine (10 mg/kg p.o.) | increase of the endogenous cerebral concentrations of N^t-methylhistamine (3 mg/kg p.o.)
N#Cc1ccc(OCCCN2CC3CCCC3C2)cc1.O=C(O)C(=O)O (centres unmarked) [Example 1, 4-(3-Hexahydrocyclopenta[c]pyrrol-2(1H)-ylpropoxy)benzonitrile oxalate] | 92% | 
CC(=O)Nc1ccc(OCCCN2CC3CCCC3C2)cc1.O=C(O)C(=O)O (centres unmarked) [Example 4, N-[4-(3-Hexahydrocyclopenta[c]pyrrol-2(1H)-ylpropoxy)-phenyl]acetamide oxalate] |  | 52%
NC(=O)c1ccc(OCCCN2CC3CCCC3C2)cc1.O=C(O)C(=O)O (centres unmarked) [Example 22, 4-(3-Hexahydrocyclopenta[c]pyrrol-2(1H)-ylpropoxy)benzamide oxalate] | 85% | 33%
CNC(=O)c1ccc(OCCCN2CC3CCCC3C2)cc1 (centres unmarked) [Example 93, 4-[3-(Hexahydrocyclopenta[c]pyrrol-2(1H)-yl)propoxy]-N-methylbenzamide] |  | 90%
